Reference: patent US20250144107A1, “USE OF A PIKFYVE INHIBITOR IN COMBINATION WITH IMMUNOTHERAPY” (The Regents of the University of Michigan, priority 2023, published 2025)

Columns and labels:
[1] = test system: KPC1361 cells; assay: Immunocytochemistry of MHC-I localization and vacuoles; assay type: cell-based, mouse; settings: IFN-γ stimulated KPC1361 cells, vs DMSO
Procedure: FIG. 1D is a series of 6 images showing MHC-I localization in IFN-γ stimulated KPC1361 cells treated with DMSO, Apilimod, or ESK981.
Cancer cells were seeded on cover glasses coated with 0.01% poly-L-Lysine (Sigma-Aldrich; catalog #: A-005-C). The cells were then treated with DMSO, apilimod, or ESK981, and stimulated with 10 ng/ml mouse recombinant IFN-γ (R&D Systems; catalog #: 485-MI) for 24 hours, followed by fixation with 2% paraformaldehyde in PBS and one washing with PBS. The cells were then permeabilized with 0.25% Triton X-100 in PBS, washed with PBS three times, and blocked with 5% goat serum in PBS for one hour at room temperature. After blocking, the cells were incubated with the MHC-I antibody (ER-HR52; Novus Biologicals; catalog #: NB100-64952) at 4° C. overnight, followed by PBS wash for three times and incubation of secondary antibody, Alexa Fluor 488 goat anti-rat IgG antibody (Jackson Immunoresearch; #112-545-167) at room temperature for one hour. After further washing with PBS three times, the cells were stained with DAPI and mounted on slides for imaging.

[2] = test system: syngeneic pancreatic tumors established with orthotopic injection of KPC1361 cells; assay: Orthotopic KPC1361 pancreatic tumor model with anti-PD-1; assay type: in vivo, mice; settings: apilimod 60 mg/kg, ESK981 30 mg/kg oral gavage
Excerpt: FIG. 8B is a line graph of the efficacy of α-PD1 in combination with apilimod or ESK981 against pancreatic tumors from orthotopically injected KPC1361 cells to mice.
FIG. 8C (Left) is a line graph of flow cytometry measuring surface expression of MHC-I on GPF-labelled cancer cells in pancreatic tumors treated with α-PD1 in combination with apilimod or ESK981; (Right) is a bar graph of quantification of flow cytometry measuring surface expression of MHC-I on GPF-labelled cancer cells in pancreatic tumors treated with α-PD1 in combination with apilimod or ESK981.
FIG. 8D (left) is a series of 3 images of flow cytometry measuring the amount of total CD8^+ T cells, and proportion of activated or proliferative CD8^+ T cells in pancreatic tumors treated with α-PD1 in combination with apilimod or ESK981; (Right) are bar graphs of flow cytometry quantification of the amount of total CD8^+ T cells, and proportion of activated or proliferative CD8^+ T cells in pancreatic tumors treated with α-PD1 in combination with apilimod or ESK981.
FIG. 9A is a line graph of the survival of pancreatic tumor bearing mice, orthotopically injected with KPC1361 cells and treated with an immune checkpoint inhibitor, apilimod, or ESK981 individually, or in combination with each other.
All experimental protocols were conducted after approval by the U-M Institutional Animal Care & Use Committee. […] KPC1361 cells were resuspended in PBS, 1:1 (v/v) mixed with Matrigel (BD Biosciences; catalog #: 354248), and orthotopically injected to the pancreases at 250,000 cells in a total volume of 50 μl per injection. B16-F10 cells were resuspended in PBS and injected subcutaneously to both flanks at 400,000 cells per injection. For ACT study, B16-F10-OVA cells were resuspended in PBS and injected subcutaneously to both flanks at 300,000 cells per injection. For lung metastasis experiment, B16-BL6 cells were resuspended in PBS, 1:1 (v/v) mixed with Matrigel and injected subcutaneously to both flanks at 400,000 cells per injection. Fifteen days after tumor cell inoculation, the primary tumors were removed surgically under anesthesia. Thirty-five days after removal of the primary tumors, lung tissues were extracted and fixed, and lung metastasis was quantified. C57BL/6 mice were acquired from The Jackson Laboratory. Measurement of tumor volume began 5-9 days post tumor cell implantation and was performed 2-3 times per week using calipers. Volume measurements of pancreatic tumors were also achieved with calipers, as reported See, e.g., Koikawa, K. et al., Cell 2021; 184(18):4753-4771. In brief, mice were subjected to anesthesia with 2-3% isoflurane, and the abdominal wall then became soft and loose. […] Volume (mm^3) of tumor was calculated using (W^2×L)/2, where W stood for minor tumor axis and L for the major. […]

SMILES	cell surface expression of MHC-I [1]	intratumoral activated CD8+ T cells [2]	tumor-specific MHC-I surface expression [2]
CC(C)Cn1c2ccc(Nc3ncccn3)cc2c2c3c(c4c(c21)CCc1nn(C)cc1-4)C(=O)NC3 [ESK981, 13-isobutyl-4-methyl-10-(pyrimidin-2-ylamino)-1,2,4,7,8,13-hexahydro-6H-indazolo[5,4-a]pyrrolo[3,4-c]carbazol-6-one]	increased	increase	upregulation
Cc1cccc(/C=N/Nc2cc(N3CCOCC3)nc(OCCc3ccccn3)n2)c1 [apilimod, N-[(E)-(3-methylphenyl)methylideneamino]-6-morpholin-4-yl-2-(2-pyridin-2-ylethoxy)pyrimidin-4-amine]	increased	increase	upregulation
